Data as given in ChEMBL document CHEMBL4011618, “Discovery of Potent, Selective Stem Cell Factor Receptor/Platelet Derived Growth Factor Receptor Alpha (c-KIT/PDGFRα) Dual Inhibitor for the Treatment of Imatinib-Resistant Gastrointestinal Stromal Tumors (GISTs)” (J Med Chem, 2017).

Assays:
[1] = MRT (0 to t) in Sprague-Dawley rat at 2 mg/kg, iv up to 24 hrs post dose by LC/MS/MS analysis; type: ADME, organism-based; conditions: in vivo
[2] = Apparent clearance in Sprague-Dawley rat at 2 mg/kg, iv up to 24 hrs post dose by LC/MS/MS analysis; type: ADME, organism-based; conditions: in vivo, read-out: CL(app) (converted)
[3] = Antiproliferative activity against human GIST48B cells assessed as cell growth inhibition after 72 hrs by cell titer-glo assay; type: functional
[4] = Volume of distribution at steady state in Sprague-Dawley rat at 2 mg/kg, iv up to 24 hrs post dose by LC/MS/MS analysis; type: ADME, organism-based; conditions: in vivo, read-out: Vdss
[5] = AUC (0 to t) in Sprague-Dawley rat at 2 mg/kg, iv up to 24 hrs post dose by LC/MS/MS analysis; type: ADME, organism-based; design: dose 2 mg/kg, time < 24 hr, route intravenous; conditions: in vivo
[6] = system: Mast/stem cell growth factor receptor Kit (Homo sapiens), P10721 [A829P]
Mast/stem cell growth factor receptor Kit (Homo sapiens), P10721 [A829P], sequence (P10721 whole entry A829P): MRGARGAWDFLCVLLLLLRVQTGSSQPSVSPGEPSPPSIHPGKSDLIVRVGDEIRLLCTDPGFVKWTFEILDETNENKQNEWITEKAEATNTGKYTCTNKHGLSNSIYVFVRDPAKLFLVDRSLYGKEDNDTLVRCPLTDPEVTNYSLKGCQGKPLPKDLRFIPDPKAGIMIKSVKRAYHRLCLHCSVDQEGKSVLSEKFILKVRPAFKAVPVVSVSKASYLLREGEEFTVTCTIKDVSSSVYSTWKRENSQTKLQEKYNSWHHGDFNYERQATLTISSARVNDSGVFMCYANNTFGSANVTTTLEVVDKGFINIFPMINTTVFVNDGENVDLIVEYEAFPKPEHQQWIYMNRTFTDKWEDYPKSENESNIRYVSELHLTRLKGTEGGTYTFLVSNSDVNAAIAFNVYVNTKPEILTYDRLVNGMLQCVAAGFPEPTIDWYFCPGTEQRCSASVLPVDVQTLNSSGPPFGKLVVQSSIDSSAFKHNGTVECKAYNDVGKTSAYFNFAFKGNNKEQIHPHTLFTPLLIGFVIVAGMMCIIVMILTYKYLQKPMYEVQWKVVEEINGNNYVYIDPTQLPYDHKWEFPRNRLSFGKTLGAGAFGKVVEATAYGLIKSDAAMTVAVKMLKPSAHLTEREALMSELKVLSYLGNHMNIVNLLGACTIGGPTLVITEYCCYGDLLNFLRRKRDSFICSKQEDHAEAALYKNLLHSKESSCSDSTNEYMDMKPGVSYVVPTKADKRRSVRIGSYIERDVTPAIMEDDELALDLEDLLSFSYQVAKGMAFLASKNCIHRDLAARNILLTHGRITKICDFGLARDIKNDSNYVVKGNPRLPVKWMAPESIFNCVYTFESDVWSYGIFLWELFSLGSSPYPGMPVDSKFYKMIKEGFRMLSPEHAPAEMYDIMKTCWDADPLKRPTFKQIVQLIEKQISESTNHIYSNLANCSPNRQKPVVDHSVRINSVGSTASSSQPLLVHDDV
Description: Inhibition of TEL-fused cKIT A829P mutant (unknown origin) expressed in mouse BAF3 cells assessed as cell growth inhibition after 72 hrs by cell titer-glo assay

[7] = system: Mast/stem cell growth factor receptor Kit (Homo sapiens), P10721 [V559D]
Mast/stem cell growth factor receptor Kit (Homo sapiens), P10721 [V559D], sequence (P10721 whole entry V559D): as the sequence (P10721 whole entry A829P) above, with V559D, P829A counted along it

[8] = Half life in rat liver microsomes at 1 uM in presence of NADPH by LC-MS/MS; type: ADME, microsome
[9] = system: Mast/stem cell growth factor receptor Kit (Homo sapiens), P10721 [V559D,T670I]
Mast/stem cell growth factor receptor Kit (Homo sapiens), P10721 [V559D,T670I], sequence (P10721 whole entry V559D/T670I): as the sequence (P10721 whole entry A829P) above, with V559D, T670I, P829A counted along it

GISTT1 = assay: Antiproliferative activity against human GISTT1 cells assessed as cell growth inhibition after 72 hrs by cell titer-glo assay; type: functional; conditions: GISTT1, 72 h
[10] = Tmax in Sprague-Dawley rat at 25 mg/kg, ip up to 24 hrs post dose by LC/MS/MS analysis; type: ADME, organism-based; conditions: in vivo
[11] = Half life in Sprague-Dawley rat at 100 mg/kg, ip up to 24 hrs post dose by LC/MS/MS analysis; type: ADME, organism-based; conditions: in vivo
[12] = Antiproliferative activity against mouse BAF3 cells assessed as cell growth inhibition after 72 hrs by cell titer-glo assay; type: cell-based
[13] = system: Mast/stem cell growth factor receptor Kit (Homo sapiens), P10721 [N822K]
Mast/stem cell growth factor receptor Kit (Homo sapiens), P10721 [N822K], sequence (P10721 whole entry N822K): as the sequence (P10721 whole entry A829P) above, with N822K, P829A counted along it
Description: Inhibition of TEL-fused cKIT N822K mutant (unknown origin) expressed in mouse BAF3 cells assessed as cell growth inhibition after 72 hrs by cell titer-glo assay

[14] = system: Mast/stem cell growth factor receptor Kit (Homo sapiens), P10721 [C674S]
Mast/stem cell growth factor receptor Kit (Homo sapiens), P10721 [C674S], sequence (P10721 whole entry C674S): as the sequence (P10721 whole entry A829P) above, with C674S, P829A counted along it
Description: Inhibition of TEL-fused cKIT C674S mutant (unknown origin) expressed in mouse BAF3 cells assessed as cell growth inhibition after 72 hrs by cell titer-glo assay

[15] = AUC (0 to infinity) in Sprague-Dawley rat at 2 mg/kg, iv up to 24 hrs post dose by LC/MS/MS analysis; type: ADME, organism-based; design: dose 2 mg/kg, route intravenous, time infinity; conditions: in vivo
[16] = AUC (0 to t) in Sprague-Dawley rat at 100 mg/kg, ip up to 24 hrs post dose by LC/MS/MS analysis; type: ADME, organism-based; design: dose 100 mg/kg, time < 24 hr, route intraperitoneal; conditions: in vivo
[17] = AUC (0 to t) in Sprague-Dawley rat at 25 mg/kg, ip up to 24 hrs post dose by LC/MS/MS analysis; type: ADME, organism-based; design: dose 25 mg/kg, time < 24 hr, route intraperitoneal; conditions: in vivo
[18] = Half life in Sprague-Dawley rat at 25 mg/kg, ip up to 24 hrs post dose by LC/MS/MS analysis; type: ADME, organism-based; conditions: in vivo
[19] = Tmax in Sprague-Dawley rat at 100 mg/kg, ip up to 24 hrs post dose by LC/MS/MS analysis; type: ADME, organism-based; conditions: in vivo
[20] = target: Tyrosine-protein kinase ABL2 (Homo sapiens) (UniProt P42684); assay: Inhibition of human wild type ABL2 (248 to 542 residues) expressed in bacterial expression system assessed as activity remaining at 1 uM by KINOMEscan assay relative to control
Tyrosine-protein kinase ABL2 (Homo sapiens), sequence (P42684 whole entry, the tested form may be a part): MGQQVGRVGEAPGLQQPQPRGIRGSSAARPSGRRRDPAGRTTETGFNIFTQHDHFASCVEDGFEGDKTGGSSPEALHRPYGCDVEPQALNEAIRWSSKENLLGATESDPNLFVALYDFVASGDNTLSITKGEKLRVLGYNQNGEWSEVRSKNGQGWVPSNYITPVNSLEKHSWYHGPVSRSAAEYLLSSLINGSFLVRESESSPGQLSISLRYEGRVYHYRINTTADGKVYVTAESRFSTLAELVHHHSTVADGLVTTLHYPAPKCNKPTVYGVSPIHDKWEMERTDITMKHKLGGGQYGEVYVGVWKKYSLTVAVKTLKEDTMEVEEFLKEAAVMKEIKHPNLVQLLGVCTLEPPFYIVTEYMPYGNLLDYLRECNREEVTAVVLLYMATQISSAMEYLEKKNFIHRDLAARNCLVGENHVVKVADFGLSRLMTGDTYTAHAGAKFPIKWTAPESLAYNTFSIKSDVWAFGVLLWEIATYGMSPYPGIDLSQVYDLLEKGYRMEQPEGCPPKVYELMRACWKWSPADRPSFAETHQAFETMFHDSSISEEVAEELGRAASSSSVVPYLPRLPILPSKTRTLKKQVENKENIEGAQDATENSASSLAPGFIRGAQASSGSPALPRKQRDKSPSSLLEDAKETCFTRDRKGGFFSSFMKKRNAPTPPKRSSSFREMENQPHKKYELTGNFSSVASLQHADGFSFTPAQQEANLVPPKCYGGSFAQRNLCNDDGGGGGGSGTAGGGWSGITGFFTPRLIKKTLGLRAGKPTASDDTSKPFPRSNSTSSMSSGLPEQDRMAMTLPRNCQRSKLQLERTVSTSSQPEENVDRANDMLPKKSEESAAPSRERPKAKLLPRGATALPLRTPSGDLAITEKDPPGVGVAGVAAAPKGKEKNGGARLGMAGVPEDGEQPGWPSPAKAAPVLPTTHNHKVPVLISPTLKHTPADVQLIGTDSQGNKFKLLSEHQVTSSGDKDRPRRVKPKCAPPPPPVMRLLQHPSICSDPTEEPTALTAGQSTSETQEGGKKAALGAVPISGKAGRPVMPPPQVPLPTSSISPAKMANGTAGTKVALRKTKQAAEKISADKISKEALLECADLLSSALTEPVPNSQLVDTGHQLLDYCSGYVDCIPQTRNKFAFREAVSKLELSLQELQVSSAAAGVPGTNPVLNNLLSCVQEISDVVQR

[21] = AUC (0 to infinity) in Sprague-Dawley rat at 100 mg/kg, ip up to 24 hrs post dose by LC/MS/MS analysis; type: ADME, organism-based; design: dose 100 mg/kg, time infinity, route intraperitoneal; conditions: in vivo
[22] = target: Mast/stem cell growth factor receptor Kit (Homo sapiens, UniProt P10721)
Mast/stem cell growth factor receptor Kit, sequence (P10721 whole entry, the tested form may be a part): as the sequence (P10721 whole entry A829P) above, with P829A counted along it
Description: Inhibition of cKIT (unknown origin) using FAM-labeled peptide as substrate preincubated for 10 mins followed by substrate addition in presence of ATP by mobility shift assay

[23] = target: Vascular endothelial growth factor receptor 3 (Homo sapiens, UniProt P35916); assay: Inhibition of human GST-tagged FLT4 (800 to 1297 residues) expressed in baculovirus by ELISA
Vascular endothelial growth factor receptor 3, sequence (P35916 whole entry, the tested form may be a part): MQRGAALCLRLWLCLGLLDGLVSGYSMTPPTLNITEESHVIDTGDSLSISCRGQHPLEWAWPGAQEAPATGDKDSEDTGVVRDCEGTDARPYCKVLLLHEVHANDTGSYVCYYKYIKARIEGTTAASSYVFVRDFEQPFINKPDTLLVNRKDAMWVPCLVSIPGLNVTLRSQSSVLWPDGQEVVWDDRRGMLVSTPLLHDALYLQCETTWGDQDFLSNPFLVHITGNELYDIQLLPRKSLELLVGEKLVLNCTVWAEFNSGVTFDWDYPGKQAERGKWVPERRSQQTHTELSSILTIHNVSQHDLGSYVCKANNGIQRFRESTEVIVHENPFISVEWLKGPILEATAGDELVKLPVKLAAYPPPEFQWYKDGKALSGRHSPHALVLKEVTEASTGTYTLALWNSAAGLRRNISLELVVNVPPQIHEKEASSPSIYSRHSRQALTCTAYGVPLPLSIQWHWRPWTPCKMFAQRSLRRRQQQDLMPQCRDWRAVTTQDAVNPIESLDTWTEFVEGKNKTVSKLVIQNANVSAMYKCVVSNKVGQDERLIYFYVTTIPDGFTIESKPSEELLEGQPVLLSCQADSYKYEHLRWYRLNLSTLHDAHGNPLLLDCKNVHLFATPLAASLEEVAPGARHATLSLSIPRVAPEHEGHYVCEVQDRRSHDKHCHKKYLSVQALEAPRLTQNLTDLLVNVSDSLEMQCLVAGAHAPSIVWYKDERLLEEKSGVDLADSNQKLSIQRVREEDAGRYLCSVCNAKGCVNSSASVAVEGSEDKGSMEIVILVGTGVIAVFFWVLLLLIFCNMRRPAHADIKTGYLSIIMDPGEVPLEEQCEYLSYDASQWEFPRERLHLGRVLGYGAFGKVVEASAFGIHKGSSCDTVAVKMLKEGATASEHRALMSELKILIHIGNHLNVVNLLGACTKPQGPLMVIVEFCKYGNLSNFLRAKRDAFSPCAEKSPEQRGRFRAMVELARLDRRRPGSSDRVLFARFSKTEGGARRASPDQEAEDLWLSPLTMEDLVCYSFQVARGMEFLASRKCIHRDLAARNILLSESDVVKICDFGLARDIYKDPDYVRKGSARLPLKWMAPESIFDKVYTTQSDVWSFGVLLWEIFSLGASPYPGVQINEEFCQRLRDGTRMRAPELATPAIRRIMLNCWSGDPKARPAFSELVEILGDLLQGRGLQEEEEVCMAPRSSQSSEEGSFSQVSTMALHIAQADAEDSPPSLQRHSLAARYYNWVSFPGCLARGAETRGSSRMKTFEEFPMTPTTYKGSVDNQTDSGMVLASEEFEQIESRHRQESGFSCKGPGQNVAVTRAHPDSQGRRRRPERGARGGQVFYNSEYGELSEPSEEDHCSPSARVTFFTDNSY

[24] = MRT (0 to infinity) in Sprague-Dawley rat at 100 mg/kg, ip up to 24 hrs post dose by LC/MS/MS analysis; type: ADME, organism-based; conditions: in vivo

## Cc1cc(NC(=O)Nc2ccc(-c3ccnc4[nH]nc(C)c34)cc2)ccc1N1CCOCC1
[1]
  MRT last at 24 h: 1.13 h
[2]
  clearance: 15.8 mL/min/kg
[3]
  GI50: > 10000 nM
[4]
  Vd: 0.97 L/kg
[5]
  AUC(0-t) at 24 h: 2240 ng·h/mL
[6]
  GI50: 11.6 nM
[7]
  GI50: 96.5 nM
[8]
  half-life at 1 µM: 0.779 h
[9]
  GI50: 36.4 nM
GISTT1
  GI50: < 3 nM
[10]
  Tmax: 4 h
[11]
  half-life: 11 h
[12]
  GI50 at 72 h: 4030 nM
[13]
  GI50: 11.1 nM
[14]
  GI50: 10.5 nM
[15]
  AUC(0-inf): 2250 ng·h/mL
[16]
  AUC(0-t) at 24 h: 4250 ng·h/mL
[17]
  AUC(0-t) at 24 h: 691 ng·h/mL
[18]
  half-life: 5.09 h
[19]
  Tmax: 4 h
[20]
  Activity: > 35%
[21]
  AUC(0-inf): 5390 ng·h/mL
[22]
  IC50: 2.4 nM
[23]
  IC50: 72 nM
[24]
  MRT inf: 14.8 h
